Among the data in US12091398B2, “PD-L1 antagonist compound” (ADLAI NORTYE BIOPHARMA CO., LTD., priority 2019, dated 2024) are EC50 values, retold here.

The structures appear in SMILES notation. pEC50: −log10 of the molar value.

In this experiment the test system is PD-1/PD-L1 interaction. Briefly: Cell based PD-1/PD-L1 NFAT reporter assay. Set-up: species or system human. Conditions: Homo sapiens, 6 h, PD-1/NFAT-Reporter-Jurkat cells co-cultured with TCR activator/PD-L1-CHO cells; 6 hour incubation; luciferase; calibrated to Atezolizumab 10 nM; read-out: Absolute EC50. As to the method:
Cell Based PD-1/PD-L1 NFAT Reporter Assay
Compounds of the present patent were tested in a cell based PD-1/PD-L1 NFAT reporter assay.
The cell-based luciferase reporter assay is used for monitoring the PD-1/PD-L1 inhibitor by characterizing the biological activity of PD-1: PD-L1 interactions in cellular context. PD-1/NFAT-Reporter-Jurkat cells stably over-expressing human PD-1 with NFAT reporter are used as effector cells. TCR activator/PD-L1—CHO cells over-expressing PD-L1 and an engineered T cell receptor (TCR) activator are used as target cells. When these two cells are co-cultivated, TCR complexes on effector cells are activated by TCR activator on target cells, resulting in expression of the NFAT luciferase reporter. However, PD1 and PD-L1 (or PD-L2) ligation prevents TCR activation and suppresses the NFAT-responsive luciferase activity. This inhibition can be specifically reversed by anti-PD1 or anti-PD-L1 inhibitors. PD1/PD-L1 inhibitors block PD1:PD-L1 interaction and promote TCR activation, resulting in reactivation of the NFAT responsive luciferase reporter.
PD-1/NFAT—Reporter—Jurkat cell (Cat: 60535) and TCR activator/PD-L1—CHO cell (Cat: 60536) were purchased from BPS Bioscience. Anti-human PD-L1 antibody (Atezolizumab, Cat: A2004) was purchased from Selleck; luciferase reporter gene expression detection kit (ONE-Glo™ Luciferase Assay System, Cat: E6120) was purchased from Promega; multifunction plate reader (SpectraMax i3x) was purchased from Molecular Devices.
PD-1/NFAT—Reporter—Jurkat cells and TCR activator/PD-L1—CHO cells were cultured in recommended media respectively.
Harvest TCR activator/PD-L1-CHO cells from culture and seed cells at a density of 35,000 cells per well into 96-well microplate in 100 µl of growth medium. Incubate cells at 37° C. in a CO2 incubator overnight. Next day, discard the culture media, add diluted compound in assay medium for 30 min. Anti-PD-L1 antibody (Atezolizumab, final concentration 10 nM) and 0.1% DMSO were the positive and negative control, respectively. Harvest the PD-1/NFAT-reporter-Jurkat cells by centrifugation and add to the wells. After 6 hour incubation, perform luciferase assay using the ONE-Glo™ Luciferase Assay System, following the manufacturer's assay protocol.
Anti-PD-L1 antibody (Atezolizumnab, 10 nM) was used as positive control to calibrate the inhibition rate using the following equation: % inhibition=(Sample luminescence/Average vehicle group luminescence−1)/(Average PD-L1 group luminescence/Average vehicle group luminescence−1)×100%.
A general note: A reporter such as luciferase makes a cellular process visible.
In general, pEC50 refers to −log10 of the EC50, conventionally taken in molar units. With `Cc1cncc(COc2cc(OCc3cccc(-c4cccc5c4cnn5CCCCN4CC[C@@H](O)C4)c3Br)c(Cl)cc2CN[C@@H](CO)C(=O)O)c1` [Compound 39], the pEC50 is less than 5.00.
Regarding `COc1cncc(COc2cc(OCc3cccc(-c4cccc5c4cnn5CCCCN4CC[C@@H](O)C4)c3Br)c(Cl)cc2CN[C@@H](CO)C(=O)O)c1` [Compound 40], the pEC50 was less than 5.00.
The value for `O=C(O)[C@H](CO)NCc1cc(Cl)c(OCc2cccc(-c3cccc4c3cnn4CCCCN3CC[C@@H](O)C3)c2Br)cc1OCc1cncc(Cl)c1` [Compound 41] was 6.22.
The value for `Cn1cc(COc2cc(OCc3cccc(-c4cccc5c4cnn5CCCCN4CC[C@@H](O)C4)c3Br)c(Cl)cc2CN[C@@H](CO)C(=O)O)cn1` [Compound 42] was less than 5.00; that for `N#Cc1cc(C#N)cc(COc2cc(OCc3cccc(-c4cccc5c4cnn5CCCCN4CC[C@@H](O)C4)c3Br)c(Cl)cc2CN[C@@H](CO)C(=O)O)c1` [Compound 44] was 6.82.
The value for `O=C(O)[C@H](CO)NCc1cc(Cl)c(OCc2cccc(-c3cccc4c3cnn4CCCCN3CC[C@@H](O)C3)c2Br)cc1OCC1CCOCC1` [Compound 45] was 5.57.
Turning to `CN1CCC(COc2cc(OCc3cccc(-c4cccc5c4cnn5CCCCN4CC[C@@H](O)C4)c3Br)c(Cl)cc2CN[C@@H](CO)C(=O)O)CC1` [Compound 46], the pEC50 was 6.07.
The value for `O=C1CC[C@@H](COc2cc(OCc3cccc(-c4cccc5c4cnn5CCCCN4CC[C@@H](O)C4)c3Br)c(Cl)cc2CN[C@@H](CO)C(=O)O)N1` [Compound 47] was 6.58; that for `O=C1CC(COc2cc(OCc3cccc(-c4cccc5c4cnn5CCCCN4CC[C@@H](O)C4)c3Br)c(Cl)cc2CN[C@@H](CO)C(=O)O)CN1` (stereo partly shown) [Compound 48] was 6.00; that for `O=C(O)[C@H](CO)NCc1cc(Cl)c(OCc2cccc(-c3cccc4c3cnn4CCCCN3CC[C@@H](O)C3)c2Br)cc1OCC(=O)N1CC[C@@H](O)C1` [Compound 49, (4-((2-bromo-3-(1-(4-((R)-3-hydroxypyrrolidin-1-yl)butyl)-1H-indazol-4-yl)benzyl)oxy)-5-chloro-2-(2-((R)-3-hydroxypyrrolidin-1-yl)-2-oxoethoxy)benzyl)-L-serine] was less than 5.00.
With `CCNC(=O)COc1cc(OCc2cccc(-c3cccc4c3cnn4CCCCN3CC[C@@H](O)C3)c2Br)c(Cl)cc1CN[C@@H](CO)C(=O)O` [Compound 50] the figure was 5.55; with `NC(=O)CNC(=O)COc1cc(OCc2cccc(-c3cccc4c3cnn4CCCCN3CC[C@@H](O)C3)c2Br)c(Cl)cc1CN[C@@H](CO)C(=O)O` [Compound 51], 5.51.
The value for `CN(C)CCNC(=O)COc1cc(OCc2cccc(-c3cccc4c3cnn4CCCCN3CC[C@@H](O)C3)c2Br)c(Cl)cc1CN[C@@H](CO)C(=O)O` [Compound 52] was less than 5.00; that for `COCCNC(=O)COc1cc(OCc2cccc(-c3cccc4c3cnn4CCCCN3CC[C@@H](O)C3)c2Br)c(Cl)cc1CN[C@@H](CO)C(=O)O` [Compound 53] was less than 5.00.
`Cc1c(OCCCN2CC[C@@H](O)C2)cccc1-c1cccc2c1cnn2Cc1cc(OCc2cncc(C#N)c2)c(CN[C@@H](CO)C(=O)O)cc1Cl` [Compound 54, (5-chloro-2-((5-cyanopyridin-3-yl)methoxy)-4-((4-(3-(3-((R)-3-hydroxypyrrolidin-1-yl)propoxy)-2-methylphenyl)-1H-indazol-1-yl)methyl)benzyl)-L-serine]: the pEC50 is 6.47.
`N#Cc1cncc(COc2cc(Cn3ncc4c(-c5cccc(OCCCN6CC[C@@H](O)C6)c5Br)cccc43)c(Cl)cc2CN[C@@H](CO)C(=O)O)c1` [Compound 55, (4-((4-(2-bromo-3-(3-((R)-3-hydroxypyrrolidin-1-yl)propoxy)phenyl)-1H-indazol-1-yl)methyl)-5-chloro-2-((5-cyanopyridin-3-yl)methoxy)benzyl)-L-serine]: the negative logarithm of the EC50 (pEC50) is 5.94.
With `COc1cc(OCc2cccc(-c3cccc4c3cnn4Cc3cc(OCc4cncc(C#N)c4)c(CN[C@@H](CO)C(=O)O)cc3Cl)c2C)c(Cl)cc1CN[C@@H](CO)C(=O)O` [Compound 56, (4-((3-(1-(4-((((S)-1-carboxy-2-hydroxyethyl)amino)methyl)-2-chloro-5-((5-cyanopyridin-3-yl)methoxy)benzyl)-1H-indazol-4-yl)-2-methylbenzyl)oxy)-5-chloro-2-methoxybenzyl)-L-serine] the figure was 6.79.
The value for `Cc1c(COc2cc(OCc3cncc(C#N)c3)c(CN[C@@H](CO)C(=O)O)cc2Cl)cccc1-c1cccc2c1cnn2Cc1cc(OCc2cncc(C#N)c2)c(CN[C@@H](CO)C(=O)O)cc1Cl` [Compound 57, (4-((3-(1-(4-((((S)-1-carboxy-2-hydroxyethyl)amino)methyl)-2-chloro-5-((5-cyanopyridin-3-yl)methoxy)benzyl)-1H-indazol-4-yl)-2-methylbenzyl)oxy)-5-chloro-2-((5-cyanopyridin-3-yl)methoxy)benzyl)-L-serine] was 7.28; that for `N#Cc1cncc(COc2cc(OCc3cccc(-c4cccc5c4cnn5Cc4ccc(CN[C@@H](CO)C(=O)O)cc4)c3Br)c(Cl)cc2CN[C@@H](CO)C(=O)O)c1` [Compound 58, (4-((4-(2-bromo-3-((4-((((S)-1-carboxy-2-hydroxyethyl)amino)methyl)-2-chloro-5-((5-cyanopyridin-3-yl)methoxy)phenoxy)methyl)phenyl)-1H-indazol-1-yl)methyl)benzyl)-L-serine] was 5.77; that for `N#Cc1cncc(COc2cc(OCc3cccc(-c4cccc5c4cnn5Cc4ccc(CN[C@@H](CO)C(=O)O)cc4Cl)c3Br)c(Cl)cc2CN[C@@H](CO)C(=O)O)c1` [Compound 59, (4-((4-(2-bromo-3-((4-((((S)-1-carboxy-2-hydroxyethyl)amino)methyl)-2-chloro-5-((5-cyanopyridin-3-yl)methoxy)phenoxy)methyl)phenyl)-1H-indazol-1-yl)methyl)-3-chlorobenzyl)-L-serine] was 6.66.
Regarding `CC(CO)(CO)NCc1cc(Cl)c(Cn2ncc3c(-c4cccc5c4cnn5CCCN4CC[C@@H](O)C4)cccc32)cc1OCc1cncc(C#N)c1` [Compound 60, (R)-5-((4-chloro-2-(((1,3-dihydroxy-2-methylpropan-2-yl)amino)methyl)-5-((1′-(3-(3-hydroxypyrrolidin-1-yl)propyl)-1H,1′H-[4,4′-biindazol]-1-yl)methyl)phenoxy)methyl)nicotinonitrile], the negative logarithm of the EC50 (pEC50) is 5.73.
On to `N#Cc1cncc(COc2cc(Cn3ncc4c(-c5cccc6c5cnn6Cc5cc(OCc6cncc(C#N)c6)c(CN[C@@H](CO)C(=O)O)cc5Cl)cccc43)c(Cl)cc2CN[C@@H](CO)C(=O)O)c1` [Compound 61, (2S,2'S)-2,2′-((((1H,1′H-[4,4′-biindazole]-1,1′-diylbis(methylene))bis(5-chloro-2-((5-cyanopyridin-3-yl)methoxy)-4,1-phenylene))bis(methylene))bis(azanediyl))bis(3-hydroxypropanoic acid)], for which the pEC50 was 6.91.
The value for `Cc1c(COc2cc(OCc3cncc(C#N)c3)c(CN[C@@H](CO)C(=O)OC(C)C)cc2Cl)cccc1-c1cccc2c1cnn2Cc1cc(OCc2cncc(C#N)c2)c(CN[C@@H](CO)C(=O)O)cc1Cl` [Compound 64, (5-chloro-4-((4-(3-((2-chloro-5-((5-cyanopyridin-3-yl)methoxy)-4-((((S)-3-hydroxy-1-isopropoxy-1-oxopropan-2-yl)amino)methyl)phenoxy)methyl)-2-methylphenyl)-1H-indazol-1-yl)methyl)-2-((5-cyanopyridin-3-yl)methoxy)benzyl)-L-serine] was 6.26; that for `Cc1c(COc2cc(OCc3cncc(C#N)c3)c(CN[C@@H](CO)C(=O)O)cc2Cl)cccc1-c1cccc2c1cnn2Cc1cc(OCc2cncc(C#N)c2)c(CN[C@@H](CO)C(=O)OC(C)C)cc1Cl` [Compound 65, (5-chloro-4-((3-(1-(2-chloro-5-((5-cyanopyridin-3-yl)methoxy)-4-((((S)-3-hydroxy-1-isopropoxy-1-oxopropan-2-yl)amino)methyl)benzyl)-1H-indazol-4-yl)-2-methylbenzyl)oxy)-2-((5-cyanopyridin-3-yl)methoxy)benzyl)-L-serine] was 6.38.
For `COc1cc(Cn2ncc3c(-c4cccc(COc5cc(OC)c(CN[C@@H](CO)C(=O)O)cc5Cl)c4C)cccc32)c(Cl)cc1CN[C@@H](CO)C(=O)O` [Compound 66, (4-((3-(1-(4-((((S)-1-carboxy-2-hydroxyethyl)amino)methyl)-2-chloro-5-methoxybenzyl)-1H-indazol-4-yl)-2-methylbenzyl)oxy)-5-chloro-2-methoxybenzyl)-L-serine], the pEC50 is 6.51.
